Source: patent US11987540B2, “Crystalline solids of 3-palmitoyl-amido-1,2-propanediol and 3-palmitoyl-amido-2-hydroxy-1-dimethoxytriphenylmethylether-propane and methods of making and using the same” (Geron Corporation, priority 2019, dated 2024)

Columns and labels:
[1] = tested on: telomerase; settings: cited from earlier work
[2] = tested on: myelofibrosis; settings: cited from earlier work
[3] = tested on: cancer cell lines and human tumors; settings: multitude of different cancer cell lines and human tumors; cited from earlier work
[4] = tested on: template region of the RNA component of telomerase; settings: cited from earlier work
[5] = Screening of the solubility in various solvents and solvent mixtures; format: physicochemical
Description: A screening of the solubility of 3-palmitoyl-amido-1,2-propanediol was conducted with various solvents and solvent mixtures. Tetrahydrofuran (THF), 2-methyl-THF, dichloromethane (DCM), N-methyl-2-pyrrolidone (NMP), dimethylacetamide (DMAc), toluene, 2-methylbutan-2-ol (tAmOH), isopropylacetate (iPrOAc), dimethylsulfoxide (DMSO) and dimethylformamide (DMF) were identified as solvents for use in the studies. The effect of triethylamine on the solubility was also evaluated.

[6] = Solubility (dissolution) of the new crystalline polymorph used as substrate; format: physicochemical; settings: polymorph from THF, 2-methyl-THF or DCM with triethylamine, heat/cool crystallization
Description: Crystalline solids were identified as a new polymorph of 3-palmitoyl-amido-1,2-propanediol using THF, 2-methyl-THF or DCM with triethylamine during a heat/cool induced crystallization. The heat/cool crystallization included solubilizing 3-palmitoyl-amido-1,2-propanediol in a solution of THF, and heating and maintaining the composition at 50° C. overnight. For 2-methyl-THF or DCM, the solution with palmitoyl-amido-1,2-propanediol was heated to 60° C. overnight to produce a solution. After cooling the samples back to 30° C., crystalline solids formed as slurries in the solutions of THF, 2-methyl-THF and DCM.

Molecule: Imetelstat
- telomerase activity [1]: inhibits telomerase activity
- bone marrow fibrosis ([2]; patients with myelofibrosis in complete remission): reversal of bone marrow fibrosis
- clinical remission ([2]; patients with myelofibrosis): complete clinical remissions in certain patients
- cell proliferation [3]: effective against cell proliferation
- binding affinity [4]: high affinity

Molecule: CCCCCCCCCCCCCCCC(=O)NCC(O)CO (stereo not shown) [3-palmitoyl-amido-1,2-propanediol]
- effect of triethylamine on the solubility ([5]; in the screened solvents (THF, 2-methyl-THF, DCM, NMP, DMAc, toluene, tAmOH, iPrOAc, DMSO, DMF)): small effect
- solubility ([5]; solvent dimethylacetamide (DMAc)): moderate solubility
- solubility ([5]; solvent dimethylformamide (DMF)): moderate solubility
- solubility ([5]; solvent dimethylsulfoxide (DMSO)): moderate solubility
- solubility of the polymorph [6]: faster solubility
